In patent US8067454B2, “Thio-substituted Anthra [1, 2-d] imidazole- 6, 11-dione derivatives, preparation method and application thereof” (National Defense Medical Center, priority 2010, dated 2011):

Experiments:
[1] = tested on: GBM8401; test: MTT assay, GBM8401 tumor cell; settings: concentration 10 μM, tumor cell
[2] = tested on: SVG p12, GBM8401 and GBM8901; test: MTT assay, normal cell versus tumor cells (categories 39-3 to 39-7); settings: tumor cell survival rate less than 80%; for category 39-4: survival rate higher than 80% for normal cell SVG p12 and only inhibits growth of tumor cell GBM8401: FIG. 5B
[3] = tested on: telomerase (total cell lysates of lung cancer cell line H1299); test: Telomeric Repeat Amplification Protocol (TRAP) assay, screen of telomerase inhibitors; assay type: biochemical, human; settings: 10 μM
Procedure: Telomeric Repeat Amplification Protocol (TRAP) Assay:
Telomerase activity was detected by a modified version of the general TRAP protocol. Telomerase products were resolved by 10% polyacrylamide gel electrophoresis and visualized by staining with SYBER Green. As a source of telomerase, the total cell lysates derived from lung cancer cell line H1299 cells were used. Protein concentration of the lysates was assayed using Bio-Rad protein assay kit using BSA standards.
In the TRAP assay, if a compound can stabilize the G-quadruplex structure such that telomerase can not act on telomere, then the effect of inhibiting the telomerase can be achieved. In the FIG. 2A to FIG. 2C, DMSO treatment represents as the positive control group (P); while a negative control group (N) used 5 μl of 0.1 mg/ml RNase A (CLONTECH) in the assay. It could be observed that a number of telomeric fragments were detected in the positive control group (P), while none was detected in the negative control group (N). 10 μM was selected as the concentration used to screen compounds.

[4] = tested on: GBM8901; test: MTT assay, GBM8901 tumor cell; settings: concentration 10 μM, tumor cell
[5] = tested on: SVG p12; test: MTT assay, SVG p12 normal cell; settings: for Cell survival rate (%) SVG p12: concentration 10 μM, normal cell

Row | Structure (SMILES) | Cell survival rate (%) GBM8401 [1] [%] | category 39-5: survival rate higher than 80% for normal cell SVG p12 and only inhibits growth of tumor cell GBM8901 ([2]; FIG. 5C) | inhibition effect against telomerase [3] | Cell survival rate (%) GBM8901 [4] [%] | category 39-4: survival rate higher than 80% for normal cell SVG p12 and only inhibits growth of tumor cell GBM8401 [2] | Cell survival rate (%) SVG p12 [5] [%] | category 39-3: survival rate higher than 80% for normal cell SVG p12 and inhibits growth of both tumor cells GBM8401 and GBM8901 ([2]; FIG. 5A) | without cell toxicity for normal cell SVGP p12 ([5]; survival rate higher than 80%)
1 | O=C1c2ccccc2C(=O)c2c1ccc1nc(SCCCCCBr)[nH]c21 [f1-9, 2-(5-bromopentylthio)-1H-anthra[1,2-d]imidazole-6,11-dione] | 62 ± 19 | in this category | exhibited inhibition effect against telomerase | – | – | – | – | –
2 | Cc1cc(C(=O)Sc2nc3ccc4c(c3[nH]2)C(=O)c2ccccc2C4=O)c(C)o1 [f2-6, S-6,11-dioxo-6,11-dihydro-1H-anthra[1,2-d]imidazol-2-yl 2,5-dimethylfuran-3-carbothioate] | – | – | exhibited inhibition effect against telomerase | 38 ± 7 | in this category | – | – | –
3 | O=C1c2ccccc2C(=O)c2c1ccc1nc(SCC(=O)N3CCCC3)[nH]c21 [f1-21, 2-(2-oxo-2-(pyrrolidin-1-yl)ethylthio)-1H-anthra[1,2-d]imidazole-6,11-dione] | 30 ± 10 | – | exhibited inhibition effect against telomerase | 38 ± 5 | – | 63 ± 1 | – | –
4 | CCN(CC)C(=O)CSc1nc2ccc3c(c2[nH]1)C(=O)c1ccccc1C3=O [f1-18, 2-(6,11-dioxo-6,11-dihydro-1H-anthra[1,2-d]imidazol-2-ylthio)-N,N-diethylacetamide] | 23 ± 13 | – | exhibited inhibition effect against telomerase | 42 ± 3 | – | 65 ± 3 | – | –
5 | C=CCSc1nc2ccc3c(c2[nH]1)C(=O)c1ccccc1C3=O [f1-19, 2-(allylthio)-1H-anthra[1,2-d]imidazole-6,11-dione] | 42 ± 18 | – | exhibited inhibition effect against telomerase | 50 ± 6 | – | 89 ± 5 | in this category | without cell toxicity for normal cell SVGP p12
6 | O=C(Sc1nc2ccc3c(c2[nH]1)C(=O)c1ccccc1C3=O)c1ccccc1[N+](=O)[O-] [f2-1, S-6,11-dioxo-6,11-dihydro-1H-anthra[1,2-d]imidazol-2-yl 2-nitrobenzothioate] | – | – | exhibited inhibition effect against telomerase | 58 ± 3 | in this category | – | – | –
7 | O=C1c2ccccc2C(=O)c2c1ccc1nc(SC(=O)N3CCOCC3)[nH]c21 [f2-2, S-6,11-dioxo-6,11-dihydro-1H-anthra[1,2-d]imidazol-2-yl morpholine-4-carbothioate] | 92 ± 11 | – | exhibited inhibition effect against telomerase | 43 ± 2 | – | 96 ± 7 | – | –
